In the assay the test system is ERK1/2 and Akt1. Kind of assay: Immunoblot, non-differentiated SH-SY5Y cells. The assay is classed as cell-based. Here is the method: The SH-SY5Y cell line was purchased from MilliporeSigma and cultured in growth medium: MEM (w/Earle’s Salts; w/L-Glutamine) + Ham’s F12 (w/L-Glutamine) (1:1 v/v), 1 × Antibiotic-Antimycotic, 1 × MEM Non-Essential Amino Acids (all reagents from Biowest, Riverside, MO, USA) and 15% FBS (Gibco, Thermo Fisher Scientific, Waltham, MA, USA). Cells were passaged using 0.25% Trypsin-EDTA (Biowest) and cultured in standard conditions (5% CO2, 37 °C with 95% relative humidity).
Compound treatment was stopped by lysing cells with N-PER™ Neuronal Protein Extraction Reagent (Thermo Fisher Scientific) containing 1 × PhosSTOP™ (Roche, Basel, Switzerland), 1 × Halt Protease Inhibitor Single-Use Cocktail (ThermoFisher Scientific) and 5 mM EDTA. The lysates were collected by scraping, and centrifuged (8000× g; 10 min at 4 °C), and the protein concentration was determined using a BCA Pierce kit (ThermoFisher Scientific). The lysates were stored at −80 °C until further processing. […] After repeated washes (TBS-T), the proteins were detected with HRP-conjugated anti-rabbit antibodies (1:4000, RT, 2 h) (Cell Signaling Technology), and the blots were incubated with Clarity Max ECL Western Blotting Substrate (Bio-Rad). Blot images and chemiluminescence signals were captured using a ChemiDoc MP Imaging System, and densitometry values were calculated using the Image Lab software (Bio-Rad). […]

The text below walks through data of publication PMC8398766, “Do Small Molecules Activate the TrkB Receptor in the Same Manner as BDNF? Limitations of Published TrkB Low Molecular Agonists and Screening for Novel TrkB Orthosteric Agonists” (Pharmaceuticals, 2021).

Turning to `C=CC(C)(C)c1[nH]c2ccccc2c1C1=C(O)C(=O)C(c2c[nH]c3c(CC=C(C)C)cccc23)=C(O)C1=O` [DMAQ-B1], the “Phosphorylation of ERK1/2 and Akt1” value is on record as “significantly induce”.
